According to US9296722B2, “Azolyl urea compounds and methods of use thereof” (Ambit Biosciences Corporation, priority 2010, dated 2016):

Columns and labels:
CSF1R (human) = target: T1, CSF1R (human) (Homo sapiens, UniProt P07333); assay: Competition binding assay, CSF1R (human) Kd
T1 construct: made in house; host or cells: T7 phage display or HEK-293 cells (alternatives, not resolved per kinase)
Procedure: (§1) The liganded beads were blocked with excess biotin and washed with blocking buffer (SeaBlock (Pierce), 1% BSA, 0.05% Tween 20, 1 mM DTT) to remove unbound ligand and to reduce non-specific binding. […] Test compounds were prepared as 100× stocks in DMSO and diluted into the aqueous environment. Kds were determined using an eleven point threefold serial dilutions. DMSO or control compounds were was added to control assays lacking a test compound. […] The kinase concentration in the eluates was measured by quantitative PCR.

CSF1R (mouse) = target: T2, CSF1R (mouse) (Mus musculus, UniProt P09581); assay: Competition binding assay, CSF1R (mouse) Kd
T2 construct: made in house; host or cells: T7 phage display or HEK-293 cells (alternatives, not resolved per kinase)
T2 sequence (P09581 20-977): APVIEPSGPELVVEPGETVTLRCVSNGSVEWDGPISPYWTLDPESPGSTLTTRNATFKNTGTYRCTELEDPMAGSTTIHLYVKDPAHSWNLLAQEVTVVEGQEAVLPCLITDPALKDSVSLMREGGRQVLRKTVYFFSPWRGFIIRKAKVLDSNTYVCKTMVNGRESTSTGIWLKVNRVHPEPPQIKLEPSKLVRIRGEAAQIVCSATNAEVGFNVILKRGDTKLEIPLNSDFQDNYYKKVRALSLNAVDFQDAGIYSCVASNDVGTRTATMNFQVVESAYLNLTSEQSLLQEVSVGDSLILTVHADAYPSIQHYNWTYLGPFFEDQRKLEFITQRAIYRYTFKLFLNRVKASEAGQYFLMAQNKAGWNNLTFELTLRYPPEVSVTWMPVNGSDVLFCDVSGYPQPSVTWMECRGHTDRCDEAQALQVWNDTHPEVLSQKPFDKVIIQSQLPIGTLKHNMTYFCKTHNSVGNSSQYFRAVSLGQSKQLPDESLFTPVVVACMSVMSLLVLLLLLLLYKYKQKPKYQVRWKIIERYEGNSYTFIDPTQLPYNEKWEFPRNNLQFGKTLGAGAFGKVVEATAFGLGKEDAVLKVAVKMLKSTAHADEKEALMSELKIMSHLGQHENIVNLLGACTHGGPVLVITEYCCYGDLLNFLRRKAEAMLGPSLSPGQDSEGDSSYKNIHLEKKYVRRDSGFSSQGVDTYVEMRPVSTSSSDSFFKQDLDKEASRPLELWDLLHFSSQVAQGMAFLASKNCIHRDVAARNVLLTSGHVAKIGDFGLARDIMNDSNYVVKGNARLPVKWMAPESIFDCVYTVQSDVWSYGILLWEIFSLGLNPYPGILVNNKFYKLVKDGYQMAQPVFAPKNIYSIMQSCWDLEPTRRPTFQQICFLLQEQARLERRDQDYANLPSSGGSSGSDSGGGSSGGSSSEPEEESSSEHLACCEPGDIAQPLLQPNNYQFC
Procedure: as §1

M-NFS-60 cells = assay: M-NFS-60 cell proliferation assay; format: cell-based, mouse; design: CSF1R Cell Proliferation (M-NFS-60) IC50 (nM): scale not given here; details: 72 hours incubation, Alamar Blue, M-CSF-dependent cells; for IC50: Mus musculus, read-out: CSF1R Cell Proliferation (M-NFS-60) IC50
Procedure: In certain embodiments, the compounds disclosed herein are tested in an M-NFS-60 cell proliferation assay to determine their cellular potency against CSF-1R. M-NFS-60s are mouse monocytic cells that depend on the binding of the ligand M-CSF to its receptor, CSF-1R, to proliferate Inhibition of CSF-1R kinase activity will cause reduced growth and/or cell death. This assay assesses the potency of compounds as CSF-1R inhibitors by measuring the reduction of Alamar Blue reagent by viable cells. An exemplary assay is described in the Examples section.
The compounds disclosed herein were tested in an M-NFS-60 cell proliferation assay to determine their cellular potency against CSF1R. M-NFS-60s are mouse monocytic cells that depend on the binding of the ligand M-CSF to its receptor, CSF1R, to proliferate Inhibition of CSF1R kinase activity will cause reduced growth and/or cell death. This assay assesses the potency of compounds as CSF1R inhibitors by measuring the reduction of Alamar Blue reagent by viable cells.
On day one of the experiment, M-NFS-60 cells were maintained in RPMI complete medium (Omega Scientific) plus 10% FBS supplemented with 20 ng/mL of M-CSF (R&D Systems). 96-well TC-treated, flat bottom plates were seeded at 10,000 cell/well at a volume of 100 μL per well. The cells were cultured overnight at 37° C. under 5% CO2.
On day two, compounds were added to the cells at 9 different concentrations, with half-log intervals alongside a control reference compound serving as a positive control. Final DMSO concentration was kept at 0.5% for a final volume of 200 μL. The compounds were allowed to incubate with the cells for 72 hours at 37° C. under 5% CO2.
On day five of the experiment, 40 μl of Alamar Blue reagent was added to each well and allowed to incubate for 3 hours. Alamar Blue fluorescence was read using SoftMax Pro software at 560 nm (excitation) and 590 nm (emission). IC50s were generated as an average of duplicates and represents the concentration of test compound that achieves 50% inhibition of cellular proliferation compared to control.

[1] = target: kinase panel containing either 359 or 386 distinct kinases; assay: Competition binding assay, selectivity score (S10) against a panel of kinases; details: compounds at 10 μM; fraction of kinases with percent of control less than 10
Procedure: Competition binding assays used herein were developed, validated and performed as described in Fabian et al., Nature Biotechnology 2005, 23, 329-336. Kinases were produced as fusions to T7 phage (See, Fabian et al. or WO04/015142) or alternatively, the kinases were expressed in HEK-293 cells and subsequently tagged with DNA for PCR detection (See, WO08/005,310). […] The liganded beads were blocked with excess biotin and washed with blocking buffer (SeaBlock (Pierce), 1% BSA, 0.05% Tween 20, 1 mM DTT) to remove unbound ligand and to reduce non-specific binding. […] Test compounds were prepared as 100× stocks in DMSO and diluted into the aqueous environment. Kds were determined using an eleven point threefold serial dilutions. DMSO or control compounds were was added to control assays lacking a test compound. Primary screen assays were performed in polypropylene 384-well plates in a final volume of 20-40 μL, while Kd determinations were performed in polystyrene 96-well plates in a final volume of […]. […] The kinase concentration in the eluates was measured by quantitative PCR.
A selectivity score (S10) is a quantitative measure of selectivity of a compound against a panel of kinases. An S10 was calculated for a compound by dividing the number of kinases found to have a percent of control (DMSO) less than 10 by the total number of distinct kinases tested (excluding mutant variants). Percent of control (POC) is calculated by subtracting the signal of the control compound
(POC=0) from the signal of the test compound and dividing the outcome by the signal of DMSO (POC=100) minus the signal of the control compound. For the compounds disclosed herein, S10 scores were obtained by testing the compounds at 10 μM concentration in a kinase panel containing either 359 or 386 distinct kinases.

T1 sequence (P07333 20-972): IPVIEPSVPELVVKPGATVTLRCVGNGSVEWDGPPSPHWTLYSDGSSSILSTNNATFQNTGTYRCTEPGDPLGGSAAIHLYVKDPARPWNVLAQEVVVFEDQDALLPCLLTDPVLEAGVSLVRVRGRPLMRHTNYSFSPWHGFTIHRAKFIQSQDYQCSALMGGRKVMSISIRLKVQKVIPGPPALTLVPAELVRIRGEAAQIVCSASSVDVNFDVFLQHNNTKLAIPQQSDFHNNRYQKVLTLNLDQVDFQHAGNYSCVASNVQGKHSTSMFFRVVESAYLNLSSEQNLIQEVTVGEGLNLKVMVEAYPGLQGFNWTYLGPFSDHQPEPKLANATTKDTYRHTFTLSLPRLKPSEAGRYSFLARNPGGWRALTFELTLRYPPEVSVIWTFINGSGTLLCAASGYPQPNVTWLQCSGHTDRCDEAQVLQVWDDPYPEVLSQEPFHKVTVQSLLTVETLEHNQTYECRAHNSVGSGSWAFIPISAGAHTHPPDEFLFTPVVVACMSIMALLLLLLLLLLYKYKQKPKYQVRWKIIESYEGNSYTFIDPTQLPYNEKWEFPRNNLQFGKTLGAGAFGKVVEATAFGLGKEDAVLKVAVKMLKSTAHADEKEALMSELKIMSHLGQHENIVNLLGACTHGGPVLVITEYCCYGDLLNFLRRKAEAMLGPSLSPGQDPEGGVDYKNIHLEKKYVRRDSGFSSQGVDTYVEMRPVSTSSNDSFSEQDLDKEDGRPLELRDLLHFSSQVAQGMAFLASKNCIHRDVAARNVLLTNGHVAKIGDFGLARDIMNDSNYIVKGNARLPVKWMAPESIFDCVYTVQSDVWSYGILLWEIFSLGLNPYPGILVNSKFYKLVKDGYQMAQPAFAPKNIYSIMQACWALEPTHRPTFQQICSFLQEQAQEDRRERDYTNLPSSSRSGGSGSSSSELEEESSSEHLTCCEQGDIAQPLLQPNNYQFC

Kd (CSF1R (human)) | Kd (CSF1R (mouse)) | Kinase Specificity (S10) [1] | SMILES | IC50 (M-NFS-60 cells) | CSF1R Cell Proliferation (M-NFS-60) IC50 (nM) (M-NFS-60 cells)
> 0.01 µM | 0.003 to 0.01 µM | A (A ≦ 0.03) | CC(C)(C)OC(=O)N1CCC(Oc2ccc(C(=O)N[C@H]3CC[C@H](NC(=O)Nc4cc(C(C)(C)C)on4)CC3)nc2)CC1 | 0.25 to 1 µM | –
< 0.003 µM | < 0.003 µM | C (C > 0.05) | CN1CCN(c2ccc(C(=O)Nc3ccc(NC(=O)Nc4cc(C(C)(C)C)on4)cc3)nc2)CC1 | ≤ 0.1 µM | –
0.003 to 0.01 µM | 0.003 to 0.01 µM | B (0.03 < B ≦ 0.05) | CN1CCN(c2cccc(C(=O)Nc3ccc(NC(=O)Nc4cc(C(C)(C)C)on4)cc3)n2)CC1 | > 1 µM | –
> 0.01 µM | > 0.01 µM | A (A ≦ 0.03) | CC(C)(C)c1cc(NC(=O)Nc2ccc(NC(=O)c3cccc(CN)n3)cc2)no1.Cl | 0.25 to 1 µM | –

Further lines, the compound ahead of its results:

SMILES | Kd (CSF1R (human)) | Kd (CSF1R (mouse)) | Kinase Specificity (S10) [1] | IC50 (M-NFS-60 cells) | CSF1R Cell Proliferation (M-NFS-60) IC50 (nM) (M-NFS-60 cells)
CC(C)(C)c1cc(NC(=O)Nc2ccc(NC(=O)c3cccc(CN4CCOCC4)n3)cc2)no1 | > 0.01 µM | > 0.01 µM | B (0.03 < B ≦ 0.05) | > 1 µM | –
CC(C)(C)c1cc(NC(=O)Nc2ccc(NC(=O)c3cc(OCCN4CCOCC4)ccn3)cc2)no1 | 0.003 to 0.01 µM | < 0.003 µM | A (A ≦ 0.03) | – | B/C
CN1CCN(c2ccnc(C(=O)Nc3ccc(NC(=O)Nc4cc(C(C)(C)C)on4)cc3)c2)CC1 | 0.003 to 0.01 µM | 0.003 to 0.01 µM | B (0.03 < B ≦ 0.05) | 0.1 to 0.25 µM | –
CN1CCC(Oc2ccc(C(=O)Nc3ccc(NC(=O)Nc4cc(C(C)(CF)CF)on4)cc3)nc2)CC1 | < 0.003 µM | < 0.003 µM | B (0.03 < B ≦ 0.05) | ≤ 0.1 µM | –
